# Reference: US4093715A, “5-Iodo-5'-amino-2',5'-dideoxycytidine and the pharmaceutically acceptable salts thereof” (priority 1977, dated 1978)
# Legend:
# mice = assay: Acute toxicity in mice; format: in vivo; conditions: for lethality, acute toxicity: mice
# Procedure: Acute toxicity of AIC in mice indicates no lethality at 200 mg/kg of body weight. However, at a level as high as 400 mg/kg the compound is lethal to mice.
# [1] = tested on: experimental herpes simplex keratitis; assay: Treatment of experimental herpes simplex keratitis in rabbits; format: in vivo; conditions: topical drops 4 mg/ml at 4 hour intervals for 72 hours starting 24 hours after infection, graded daily for 11 days
# Procedure: One advantage of AIC has been established by the treatment of rabbits. In this study, experimental herpes simplex keratitis was established bilaterally in 16 rabbits. These were divided into 2 matched groups of 8. Each group was treated in a double blind fashion with topical drops at 4 hour intervals for 72 hours starting 24 hours after infection. The solutions administered were:
# 2. AIC, 4 mg/ml Each eye was examined daily for 11 days and graded by two ophthalmologists.
# [2] = tested on: herpes simplex virus strain HSV-1 (prototype); assay: Inhibition of herpes simplex virus replication (titre reduction by plaque assay) in infected Vero cells; format: cell-based, herpes simplex virus type 1
# Procedure: The compounds of this invention manifest a high order to inhibition with various herpes simplex viruses. For example, when tested against strain HSV-1 (prototype) at a concentration of 400 μM the average log reduction in titre was 1.4.
# (§1) Standard procedures were used to maintain the virus and the Vero cells. This included growth and titration by plaque assay as well as the replications of the virus in the presence of the test compounds. Cells were maintained and infected in Dulbecco's medium with 10% fetal calf serum.
# For testing, the cells were infected with virus at a ratio of approximately 10 plaque forming units per cell. The viral inoculum was drained after one hour adsorption at 37° C. An appropriate volume of medium containing the compound for testing was added. After 36-48 hours at 37° C, the infected cells were frozen until ready for titration.
# Vero cells = assay: Cytotoxicity; format: cell-based
# Source text: as §1
# pregnant rabbits = conditions: topically to the eye, doses similar to those used clinically in humans; cited from earlier work
# [3] = cited from earlier work
# newborn rats = conditions: systemic administration; cited from earlier work
SMILES,"lethality, acute toxicity (mice; 200 mg/kg of body weight)","lethality, acute toxicity (mice; 400 mg/kg)",therapeutic index (in words) (mice; from acute toxicity in mice coupled with activity),therapeutic effectiveness in herpes simplex keratitis [1],"log reduction at 400 µM ([2]; Human alphaherpesvirus 1, HSV-1 (prototype), 400 μM, infected Vero cells, ~10 pfu per cell, 36-48 hours at 37° C)",cytotoxicity (Vero cells; at treatment levels as high as 1600 μM),teratogenicity (pregnant rabbits),undesirable side effects ([3]; ocular use in herpes simplex keratitis),cellular toxicity ([3]; therapy of herpes simplex keratitis),antiviral activity (in words) ([2]; at relatively low levels),teratogenicity (newborn rats),cytotoxicity (Vero cells; at a concentration of 50 μM)
"NC[C@H]1O[C@@H](n2cc(I)c(N)nc2=O)C[C@@H]1O [AIC, 5-Iodo-5'-amino-2',5'-dideoxycytidine]",no lethality,lethal,good therapeutic index,effective therapeutically,1.4,No cytotoxicity is evident,,,,,,
"O=c1[nH]c(=O)n([C@H]2C[C@H](O)[C@@H](CO)O2)cc1I [idoxuridine, 5-iodo-deoxy-uridine]",,,,,,,teratogenicity,"follicular and papillary conjunctivitis, and epithelial punctate keratopathy",significant cellular toxicity,high order of activity,teratogenicity,almost totally cytotoxic
